System: MDA-MB-231 cells
Assay: Cell proliferation assay (CellTiter-Glo), MDA-MB-231
Type: cell-based
Details: Homo sapiens, MDA-MB-231, 72 h, 72 h treatment, Celltiter-Glo luminescence
Experimental: Example 238: Cell Proliferation Assay
MDA-MB-231 and EVSA-T cells (10000 cells/well) were plated onto 96-well plates (Corning, Cat #3917) in 95 μL of medium (RPMI-1640 containing 10% FBS and MEM containing 10% FBS, respectively). Compounds with various concentrations ([…]) were added to the wells. After treatment for 72 h, 30 μL of Celltiter-Glo reagent (Promega, Cat #G7573) was added and incubated at room temperature for 15 min, then the luminescent signal was determined using a microplate reader (Biotek, SynergyH1). The inhibitor dose-response curves were analyzed using normalized IC50 regression curve fitting with control based normalization.

SMILES	IC50 [nM]
CNC(=O)c1nc2c(Cc3ccc(F)cc3)cc3c(n2n1)C(C)(C)CN3C(=O)CN1C[C@@H](C)NC[C@@H]1CN1CCOC[C@H]1C [Compound 255, 4-(4-fluorobenzyl)-N,8,8-trimethyl-6-(2-((2R,5R)-5-methyl-2-(((R)-3-methylmorpholino)methyl)piperazin-1-yl)acetyl)-7,8-dihydro-6H-pyrrolo[2,3-e][1,2,4]triazolo[1,5-a]pyridine-2-carboxamide]	580
C[C@@H]1CN(CC(=O)N2CC(C)(C)c3c2cc(Cc2ccc(F)cc2)c2ncnn32)[C@@H](CN2CCNC(=O)[C@H]2C)CN1 [Compound 191, (R)-4-(((2R,5R)-1-(2-(4-(4-fluorobenzyl)-8,8-dimethyl-7,8-dihydro-6H-pyrrolo[2,3-e][1,2,4]triazolo[1,5-a]pyridin-6-yl)-2-oxoethyl)-5-methylpiperazin-2-yl)methyl)-3-methylpiperazin-2-one]	80
C[C@@H]1CN(CC(=O)N2CC(C)(C)c3c2cc(Cc2ccc(F)cc2)c2nn(Cc4cccnn4)c(=O)n32)[C@@H](CN2CCOC[C@H]2C)CN1 [Compound 253, 4-(4-fluorobenzyl)-8,8-dimethyl-6-(2-((2R,5R)-5-methyl-2-(((R)-3-methylmorpholino)methyl)piperazin-1-yl)acetyl)-2-(pyridazin-3-ylmethyl)-2,6,7,8-tetrahydro-1H-pyrrolo[2,3-e][1,2,4]triazolo[4,3-a]pyridin-1-one]	230
C[C@@H]1CN(CC(=O)N2CC(C)(C)c3c2cc(Cc2ccc(F)cc2)c2nn(Cc4ncn(C)n4)c(=O)n32)[C@@H](CN2CCOC[C@H]2C)CN1 [Compound 232, 4-(4-fluorobenzyl)-8,8-dimethyl-2-((1-methyl-1H-1,2,4-triazol-3-yl)methyl)-6-(2-((2R,5R)-5-methyl-2-(((R)-3-methylmorpholino)methyl)piperazin-1-yl)acetyl)-2,6,7,8-tetrahydro-1H-pyrrolo[2,3-e][1,2,4]triazolo[4,3-a]pyridin-1-one]	330
C[C@@H]1CN(CC(=O)N2CC(C)(C)c3c2cc(S(=O)(=O)c2ccc(F)cc2)c2ncnn32)[C@@H](CN2CCOC[C@H]2C)CN1 [Compound 176, 1-(4-((4-fluorophenyl)sulfonyl)-8,8-dimethyl-7,8-dihydro-6H-pyrrolo[2,3-e][1,2,4]triazolo[1,5-a]pyridin-6-yl)-2-((2R,5R)-5-methyl-2-(((R)-3-methylmorpholino)methyl)piperazin-1-yl)ethan-1-one]	190
Cc1nccn1C[C@H]1CN[C@H](C)CN1CC(=O)N1CC(C)(C)c2c1cc(Cc1ccc(F)cc1)c1nc(C(F)(F)F)cn21 [Compound 186, 1-(4-(4-fluorobenzyl)-8,8-dimethyl-2-(trifluoromethyl)-7,8-dihydro-6H-imidazo[1,2-a]pyrrolo[2,3-e]pyridin-6-yl)-2-((2R,5R)-5-methyl-2-((2-methyl-1H-imidazol-1-yl)methyl)piperazin-1-yl)ethan-1-one]	230
C[C@@H]1CN(CC(=O)N2CC(C)(C)c3c2cc(Sc2ccc(F)cc2N)c2ncnn32)[C@@H](CN2CCOC[C@H]2C)CN1 [Compound 216, 1-(4-((2-amino-4-fluorophenyl)thio)-8,8-dimethyl-7,8-dihydro-6H-pyrrolo[2,3-e][1,2,4]triazolo[1,5-a]pyridin-6-yl)-2-((2R,5R)-5-methyl-2-(((R)-3-methylmorpholino)methyl)piperazin-1-yl)ethan-1-one]	280
C[C@@H]1CN(CC(=O)N2CC(C)(C)c3c2cc(N2CCCc4cc(F)ccc42)c2ncnn32)[C@@H](CN2CCOC[C@H]2C)CN1 [Compound 168, 1-(4-(6-fluoro-3,4-dihydroquinolin-1(2H)-yl)-8,8-dimethyl-7,8-dihydro-6H-pyrrolo[2,3-e][1,2,4]triazolo[1,5-a]pyridin-6-yl)-2-((2R,5R)-5-methyl-2-(((R)-3-methylmorpholino)methyl)piperazin-1-yl)ethan-1-one]	190

— patent US20250179073A1, “TRICYCLIC HETEROCYCLE COMPOUNDS AS IAP ANTAGONISTS” (Ascentage Pharma (Suzhou) Co., Ltd., priority 2022, published 2025)
